Data: US20090304823A1, “NUTRITIONAL COMPOSITIONS FOR PROMOTION OF BONE GROWTH AND MAINTENANCE OF BONE HEALTH AND METHODS REGARDING SAME” (NESTEC S.A., priority 2006, published 2009)

Assays:
BMP-2 = BMP-2 gene reporter assay (high throughput screen); assay type: cell-based
Procedure: BMP-2 gene reporter assay (high throughput screen) (i) BMP-2 high throughput gene reporter assay of non-hydrolyzed MeOH/H2O extracts (1a) and corresponding glycosidase hydrolyzed extract in ethyl acetate (1b). Extracts were tested twice at concentrations of 1 to 100 μg/ml, diluted in culture medium from plant extract stocks prepared as 50 mg/ml in DMSO. (ii) Extracts positive in the BMP-2 screen were prepared de novo and screened again with dose-response to confirm as “hits”. (iii) BMP-2 testing of subfractionation of positives/hits and candidate pure compounds

osteoblast cells = assay: Alkaline phosphatase assay in osteoblast cells (osteoblast differentiation); assay type: cell-based
[1] = tested on: neonatal murine calvarial bones; assay: Calvaria organ culture in vitro, bone formation; assay type: cell-based
Procedure: (v) Final injection in vivo of “hit” extract into mouse calvaria bones and monitoring of bone area and thickness. Extracts were assessed in a 4-day in vitro neonatal murine calvarial assay. Bones were incubated with the extracts for the entire 4 days.

OPG/RANKL = assay: Osteoblast/osteoclast co-culture system, cytokine regulation; assay type: cell-based
Procedure: For example, at least 3 phenolics (e.g. eupafolin, carnosol, scutellarein) may contribute to the anabolic potential of the rosemary extract. Additional phenolics of rosemary include genkwanin, kaempferol, acacetin. The rosemary plant extracts and pure compounds were tested in an osteoblast/osteoclast co-culture system.

[2] = tested on: bovine articular cartilage explants; assay: Cytokine-induced collagen degradation in articular cartilage explants; assay type: cell-based; conditions: 1 or 5 μM; FIG. 9C
Description: (vii) Effects on cytokine-induced type II collagen degradation, MMP-mediated aggrecan degradation and aggrecanase-mediated degradation in bovine articular cartilage explants.
We investigated here whether 2 different rosemary extracts and carnosol, one of the main components of this extract, could inhibit the degradation of collagen and aggrecan in cultured explants of articular cartilage. Explants from healthy bovine articular cartilage were put in culture. However, such explants naturally display a very low catabolic activity which is not ideal to test the anti-catabolic activity of potential bioactives. To improve the sensitivity of the assay, the explants are cultured in presence of 2 pro-inflammatory cytokines, TNF-α and oncostatin known to act together as potent inducers of MMP and aggrecanase activities.

Osteopontin (OPN) mRNA = assay: OPN mRNA induction by real-time PCR in hPOBtert osteoblasts; assay type: cell-based, human; conditions: hPOBtert cells, 48 h; FIG. 10
Procedure: Cell culture—HPOBTert osteoblasts were seeded on collagen-coated plates and grown in MEM Eagle α Modification medium supplemented with 10% fetal bovine serum, 1% L-glutamine and penicillin/streptomycin, 1 mM β-glycerolphosphate and 50 μg/ml ascorbic acid in a humidified atmosphere of 5% CO2, and 95% air at 37° C. When carnosol and inhibitors were added, an equivalent amount of Me2SO was used as a vehicle control. Analysis of mRNA levels by Real-Time PCR—Total cellular RNA was extracted using the NucleoSpin RNA II kit (Macherey-Nagel, Switzerland). Equal amounts (1 μg) of RNA from the different treatments were reverse-transcribed using the First Strand cDNA Synthesis kit for RT-PCR (Roche, Mannheim, Germany). For each sample, 2 μl 10× reaction buffer, 4 μl 25 mM MgCl2, 2 μl nucleotide mix, 2 μl random primers, 1 μl RNAse inhibitor and 0.4 μl AMV reverse transcriptase from the kit were added to the sample. The reverse transcriptase was performed at the following thermal cycling conditions (25° C. for 10 min, 42 C for 60 min, and 75° C. for 5 min) using the PTC-100TM Concept, Switzerland). Real-time Quantitative PCR—Quantitative PCR was performed in 25 μl in triplicates. This consisted of 12.5 μl of Taqman 2× Universal PCR Master Mix, 1.25 μl Assay-on-Demand primers and probes (Applied Biosystems, USA) and 6.25 μl RNAse free water. […]

NQO1 = NQO1 induction, immunoblot of hPOBtert cell extracts; assay type: cell-based, human; conditions: hPOBtert cells; FIG. 11
Procedure: Preparation of cytoplasmic extracts—hPOBtert cells were washed two times with cold phosphate-buffered saline and harvested with lysis buffer (1% Triton X-100, 20 mM Tris/HCL pH 8, 137 mM Nacl, 10% Glycerol, 2 mM EDTA pH 8, and freshly added proteinase inhibitors: 1 mM phenylmethylsulfonylfluoride, 0.15 U/ml Aprotinin, 10 μg/ml Leupeptide and 10 μg/ml Pepstatin). The samples were centrifuged at 13000 rpm, 4° C. for 5 min and the supernatant transferred to a fresh tube. The protein concentration was determined using the BioRad protein assay. Approximately 50 μg of each sample were mixed with a suitable volume of sample buffer, denatured for 5 min at 95° C. together with 5 μl protein standard, chilled on ice, and loaded on a 10% ready gel, and submitted to immunoblot analysis using anti-NQO1 antibodies.
Immunoblotting—50 μg of protein cell lysate were resolved by SDS-PAGE. After electrophoresis, proteins were transferred to a PVDF membrane (Invitrogen) according to the manufacturer's protocol. Membranes probed for OPN and NQO1 were blocked and probed in 5% milk in Tris-buffered saline/Tween (20 mM Tris base, pH 7.6, 137 mM, 0.1% Tween 20). The blots were visualised by chemiluminescence development, Western blotting detection system (Amersham Biosciences).
Antibodies—The NQO1 (sc-16464)-specific antibodies were purchased from Santa Cruz Biotechnologies Inc (Santa Cruz, Calif.). […]

In the case of `O=c1c(O)c(-c2ccc(O)cc2)oc2cc(O)cc(O)c12` [Kaempferol], the BMP-2 induction (BMP-2; 1-10 μM) was 2.5X, the ALP activity induction (osteoblast cells; 2.5-10 μM) was 2-4X and the “Bone formation in organ culture” value ([1]; 10 μM) was “Slight at 10 μM”.

`COc1cc(O)c2c(=O)cc(-c3ccc(O)cc3)oc2c1` [V, Genkwanin] showed a BMP-2 induction (BMP-2; 5 μM) of 4X and an ALP activity induction (osteoblast cells; 10 μM) of 1.5X.

For `COc1ccc(-c2cc(=O)c3c(O)cc(O)cc3o2)cc1` [Acacetin], the BMP-2 induction (BMP-2; 5-10 μM) was 3-5X and the ALP activity induction (osteoblast cells; 5-10 μM) was 2X.

`COc1c(O)cc2oc(-c3ccc(O)c(O)c3)cc(=O)c2c1O` [Eupafolin] was tested, and the BMP-2 induction (BMP-2; 2.5-10 μM) was 3-8X, the ALP activity induction (osteoblast cells; 5 μM) was 2 X and the ALP activity induction (osteoblast cells; 10 μM) was 4 X. For the same compound, the “regulation of the key cytokines controlling bone remodelling, OPG/RANKL” value (OPG/RANKL) was “activity for regulation”.

In the case of `CC(C)c1cc2c(c(O)c1O)[C@@]13CCCC(C)(C)[C@@H]1C[C@@H]2OC3=O` [VII, Carnosol], the BMP-2 induction (BMP-2; 2.5-10 μM) was 4.5-7X, the “BMP- Activity” value (BMP-2; compounds isolated from rosemary extract 2188) was “YES” and the ALP activity induction (osteoblast cells; 2.5-10 μM) was 2X. For the same compound, the “Bone formation in organ culture” value ([1]; 2.5 μM) was “Slight BF for 2.5 μM”, the “Bone formation in organ culture” value ([1]; 5, 10 μM) was “Good BF for 5, 10 μM” and the “cytokine induced collagen degradation” value [2] was “inhibited”. For the same compound, the “OPN expression (OPN mRNA levels)” value (Osteopontin (OPN) mRNA) was “induce OPN expression dose-dependently”, the “expression of the phase II enzyme NQO1” value (NQO1) was “induces the expression” and the “regulation of the key cytokines controlling bone remodelling, OPG/RANKL” value (OPG/RANKL) was “activity for regulation”.

With `O=c1cc(-c2ccc(O)cc2)oc2cc(O)c(O)c(O)c12` [IX, Scutellarein] the BMP-2 induction (BMP-2; 5, 10 μM) was 3-4X and the ALP activity induction (osteoblast cells; 10 μM) was 2X.
